Reference: patent publication US10730833B2, “Synthesis of diindolylmethanes and indolo[3,2-b]carbazoles, compounds formed thereby, and pharmaceutical compositions containing them” (Wisconsin Alumni Research Foundation, priority 2014, dated 2020)

Molecular target: AhR (Homo sapiens (Human), UniProt P35869)
Assay: ethoxyresorufin-O-deethylase (EROD) assay, AhR activation in HepG2 cells
Type: cell-based
Method: The human Hep G2 cell line from the Small Molecule Screening and Synthesis Facility (UWCCC, Madison, Wis.) and was maintained in DMEM medium supplemented with 10% FBS. Cells were incubated at 37° C. in a humidified atmosphere supplemented with 5% CO2.
Preparation of cells: Cells were cleaved from T75 flasks with 0.05% trypsin. The cells were then collected by spinning at 1 g for 4 min. Excess media containing trypsin was removed from the pellet, which was then re-suspended in growth media. The cells were then counted using a hemocytometer. Cells were plated in sterile 96-well clear bottom black culture plates at a density of 20,000 cells per well in 0.1 mL of media. The cells were then incubated for 24 h at 37° C. in a humidified atmosphere supplemented with 5% CO2.
The ethoxyresorufin-O-deethylase (EROD) assay was performed on cell cultures of human Hep G2 cells. Briefly, 24 h after plating, cells in 96-well plates were treated with AhR agonists and allowed to incubate for 24 h. Each well was then rinsed with 200 uL of PBS buffer twice. To each well was then added 100 uL of 150 nM solution of 7-ethoxyresurufin and allowed to incubate for 2 h. Fluorescence measurements were obtained with a Safire II micro plate reader with excitation at 520 nm with a 25 nm bandwidth and emission at 595 nm with a 20 nm bandwidth.
The bioactivity of malassezin analogs was then investigated. The well-documented ethoxyresorufin-O-deethylase (EROD) assay was used to determine the EC50 values of the compounds towards AhR activation in HepG2 cells. Donato, M. T.; Gomezlechon, M. J.; Castell, J. V. Anal. Biochem. 1993, 213, 29; van Tonder, J. J., University of Pretoria Z.A., Thesis, 2011. This assay measures the induction of cytochrome P450-1A1 (CYP1A1), which is a major outcome of AhR activation. Whyte, J. J.; Jung, R. E.; Schmitt, C. J.; Tillitt, D. E. Crit. Rev. Toxicol. 2000, 30, 347. CYP1A1 selectively converts 7-ethoxyresorufin to the fluorescent product resorufin.

AhR, sequence (P35869 11-848): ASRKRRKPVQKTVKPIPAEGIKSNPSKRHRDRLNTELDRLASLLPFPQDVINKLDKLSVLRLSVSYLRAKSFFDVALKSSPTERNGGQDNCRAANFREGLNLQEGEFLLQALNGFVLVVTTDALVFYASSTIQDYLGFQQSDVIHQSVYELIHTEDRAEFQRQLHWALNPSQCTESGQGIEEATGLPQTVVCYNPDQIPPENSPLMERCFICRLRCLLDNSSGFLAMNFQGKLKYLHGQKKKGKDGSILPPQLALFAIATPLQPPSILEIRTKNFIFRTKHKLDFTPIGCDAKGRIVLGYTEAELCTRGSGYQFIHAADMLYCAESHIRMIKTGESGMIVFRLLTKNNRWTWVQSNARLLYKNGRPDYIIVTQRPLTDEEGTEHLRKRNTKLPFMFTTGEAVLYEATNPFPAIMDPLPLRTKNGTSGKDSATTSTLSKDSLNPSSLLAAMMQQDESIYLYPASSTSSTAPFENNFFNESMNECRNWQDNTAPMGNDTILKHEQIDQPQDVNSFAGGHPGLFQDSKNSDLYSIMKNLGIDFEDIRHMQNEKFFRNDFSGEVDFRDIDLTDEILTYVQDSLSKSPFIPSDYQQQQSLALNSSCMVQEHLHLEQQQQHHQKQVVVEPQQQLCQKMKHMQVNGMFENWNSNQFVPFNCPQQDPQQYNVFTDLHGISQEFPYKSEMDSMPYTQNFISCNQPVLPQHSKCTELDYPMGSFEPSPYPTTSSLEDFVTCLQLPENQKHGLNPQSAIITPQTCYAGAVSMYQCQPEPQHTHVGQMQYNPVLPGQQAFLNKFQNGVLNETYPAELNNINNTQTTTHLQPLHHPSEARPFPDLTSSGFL

| SMILES | AhR potency (EC50) compared with malassezin, the positive control |
| --- | --- |
| O=Cc1c(Cc2c[nH]c3ccc(Cl)cc23)[nH]c2ccccc12 [Compound 11a] | more potent than the positive control |
| O=Cc1c(Cc2c[nH]c3c(Cl)cccc23)[nH]c2ccccc12 [Compound 11b] | slightly weaker agonist |
| COc1ccc2[nH]cc(Cc3[nH]c4ccccc4c3C=O)c2c1 [Compound 11c] | behaved similarly to malassezin |
| Cn1cc(Cc2[nH]c3ccccc3c2C=O)c2ccccc21 [Compound 11d] | about five times lower than that of malassezin |
